Laboratory results from patent US20170342451A1, “BIOSYNTHESIS OF PACLITAXEL INTERMEDIATE” (Board of Trustees of Michigan State University, priority 2012, published 2017).

Key:
TycA = biological target: T1, TycA (Brevibacillus parabrevis, UniProt P09095); experiment: CoA ligase reaction kinetics, TycA; assay type: biochemical, Brevibacillus brevis; settings: for kcat^CoA: turnover with CoA at apparent saturation
T1 construct: this wild-type tycA cDNA encoding the A-, T-, and E-domains was subcloned into a pSU18 vector; made in house; host or cells: Escherichia coli BL21(DE3)
T1 sequence (P09095 with tags, fused parts or gaps): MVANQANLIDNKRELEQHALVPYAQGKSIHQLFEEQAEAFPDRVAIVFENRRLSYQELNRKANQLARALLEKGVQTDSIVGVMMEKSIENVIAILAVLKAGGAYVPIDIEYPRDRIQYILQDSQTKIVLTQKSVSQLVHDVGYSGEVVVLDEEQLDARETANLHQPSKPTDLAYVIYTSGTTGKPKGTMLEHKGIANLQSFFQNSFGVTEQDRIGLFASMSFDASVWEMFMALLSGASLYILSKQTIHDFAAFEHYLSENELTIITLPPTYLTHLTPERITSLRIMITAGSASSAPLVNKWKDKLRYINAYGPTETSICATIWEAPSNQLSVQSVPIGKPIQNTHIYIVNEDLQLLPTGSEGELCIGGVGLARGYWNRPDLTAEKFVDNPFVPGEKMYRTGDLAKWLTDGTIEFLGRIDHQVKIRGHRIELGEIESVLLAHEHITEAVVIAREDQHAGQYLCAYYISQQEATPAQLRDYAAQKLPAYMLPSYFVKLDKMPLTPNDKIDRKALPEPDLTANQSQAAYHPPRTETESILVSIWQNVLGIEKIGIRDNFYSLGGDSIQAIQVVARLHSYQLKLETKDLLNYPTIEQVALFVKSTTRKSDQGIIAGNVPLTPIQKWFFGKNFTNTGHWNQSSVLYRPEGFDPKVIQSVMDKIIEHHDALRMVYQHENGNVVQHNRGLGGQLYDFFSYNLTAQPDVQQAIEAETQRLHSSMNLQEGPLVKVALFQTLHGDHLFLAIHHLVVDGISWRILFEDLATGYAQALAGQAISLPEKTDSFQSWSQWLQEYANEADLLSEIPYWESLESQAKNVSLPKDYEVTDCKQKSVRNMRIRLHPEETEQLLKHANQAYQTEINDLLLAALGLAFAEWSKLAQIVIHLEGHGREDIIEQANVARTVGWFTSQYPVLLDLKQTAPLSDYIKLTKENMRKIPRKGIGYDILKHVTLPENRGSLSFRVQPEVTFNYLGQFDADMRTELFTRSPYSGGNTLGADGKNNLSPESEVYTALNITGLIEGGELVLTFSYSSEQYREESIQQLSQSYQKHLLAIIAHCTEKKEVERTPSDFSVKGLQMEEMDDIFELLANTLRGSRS
Procedure: (§1) Under steady-state conditions, (S)-α-phenylalanine, (R)-β-phenylalanine, and (2R,3S)-phenylisoserine at 5, 10, 20, 40, 80, 160, 250, 500, 1000 and 2000 μM were separately incubated with TycA or TycA-S563A (20 μg) for 30 min. At the end of each reaction, and prior to mass spectrometry analysis, acetyl CoA (1 μM) was added as the internal standard to each sample to correct for variations of the analyte. The products of the enzyme-catalyzed reaction were quantified by a liquid chromatography multiple reaction monitoring (LC-ESI-MRM) mass spectrometry technique (Anderson & Hunter, Mol. Cell. Proteomics 5: 573-588 (2006)) on the Quattro-Premier Electro-Spray Mass Spectrometer coupled with Acquity® UPLC system fitted with a C18 Ascentis Express column (2.5×50 mm, 2.7 μm) at 30° C. An aliquot (5 μL) of each sample was loaded onto the column and the analytes were eluted with a solvent gradient of acetonitrile (Solvent A) in 0.05% triethylamine in distilled water (Solvent B). Elution was held at 2.5% Solvent A for 3.17 min, increased to 100% Solvent A over 5 sec with a 2-min hold, and then returned to 2.5% Solvent A over 5 sec with a 50-sec hold. The flow rate employed was 0.4 mL/min. The effluent from the chromatography column was directed to the mass spectrometer where the first quadrupole mass analyzer (in negative ion mode) was set to select for the molecular ion of a biosynthesized acyl CoA product. The selected ion was then directed to a collision gas chamber where the collision energy was optimized to maximize the abundance of a single signature fragment ion (m/z 408, characteristic of acyl CoA thioesters) resolved in the second quadrupole mass analyzer by the MRM method. The peak area under the curve of fragment ion m/z 408 for each biosynthetic phenylpropionyl CoA thioester was converted to concentration by comparing the peak area of the same ion produced by authentic CoA (at 0.05, 0.1, 0.2, 0.4, 0.8, 1.6, 3.2, 6.4, 12.5, 25, 50, 100 μM) using linear regression analysis.
(§2) The KM values of TycA and TycA-S563A for CoA were assessed by incubating each enzyme separately with (S)-α-phenylalanine (1 mM), MgCl2 (3 mM), ATP (1 mM), and CoA at 0.05, 0.1, 0.2, 0.4, 0.8, 1.6, 3.2, 6.4, 12.8 and 25.6 mM at 31° C. for 20 min. At the end of each reaction and prior to mass spectrometry analysis, acetyl CoA (1 μM) was added as the internal standard to each sample to correct for variations of the analyte. The products of the enzyme-catalyzed reaction were quantified by LC-ESI-MRM, and the monitored fragment ion (m/z 408) derived from the CoA moiety of the thioester analytes in the effluent was quantified identically to the procedure described earlier herein.

TycA-S563A = TycA-S563A (Brevibacillus parabrevis, UniProt P09095, S563A); settings: CoA with (S)-α-Phe as cosubstrate; for kcat^CoA: turnover with CoA at apparent saturation
Procedure: as §1, with “The selected ion was then directed to a collision gas chamber where the collision energy was optimized to maximize the abundance of a single signature fragment ion (m/z 408, characteristic of acyl CoA thioesters) resolved in the second quadrupole mass analyzer by the MRM method. The peak area under the curve of fragment ion m/z 408 for each biosynthetic phenylpropionyl CoA thioester was converted to concentration by comparing the peak area of the same ion produced by authentic CoA (at 0.05, 0.1, 0.2, 0.4, 0.8, 1.6, 3.2, 6.4, 12.5, 25, 50, 100 μM) using linear regression analysis.” left out
as §2, with “At the end of each reaction and prior to mass spectrometry analysis, acetyl CoA (1 μM) was added as the internal standard to each sample to correct for variations of the analyte.” left out

[1] = TycA, CoA with (S)-α-Phe as cosubstrate

Row | Compound | Km (TycA; TycA, CoA 1 mM, ATP 1 mM, MgCl2 3 mM, 31° C., CoA with (S)-α-Phe as cosubstrate) [µM] | kcat^CoA (TycA; [1]) [s⁻¹] | Km (TycA-S563A; CoA 1 mM, ATP 1 mM, MgCl2 3 mM, 31° C.) [µM] | kcat^CoA (TycA-S563A) [s⁻¹] | catalytic preference of TycA, higher than for (2R,3S)-Phenylisoserine (TycA; TycA with CoA) [fold] | catalytic preference of TycA, higher than for (S)-α-Phe (TycA; TycA with CoA) [fold]
1 | N[C@@H](c1ccccc1)[C@@H](O)C(=O)O [(2R,3S)-PheIso, (2R,3S)-phenylisoserine] | 89.3 ± 15 | 0.00417 ± 0.00033 | 191 ± 10 | 0.00717 ± 0.00017 |  | 
2 | N[C@H](CC(=O)O)c1ccccc1 [(R)-β-Phe, (R)-β-phenylalanine] |  | 0.0267 ± 0.005 |  | 0.05 ± 0.00067 | 10 | 5
